Here are results for six compounds from patent US20100331183A1, “AGENT FOR IMPROVING GOOD RICE SEEDLING GROWTH” (COSMO OIL CO., LTD, priority 2008, published 2010).

For test [1], the system named is rice seedlings. Briefly: Effect of improving the growth of rice seedlings - 1 (soil irrigation in seedling box, harvest 33 days from sowing). In kind it is in vivo, rice (koshihikari variety). The procedure: 450 g/pot of soil was placed in a seedling box (the area was 1/120,000×10 a). The soil used was a purchased volcanic ash soil (andosol). […] Fertilizer application was carried out using a liquid fertilizer, Hyponica, at a rate of 3 kg-N/10 a. […] After 29 days from sowing, additional fertilizer application was carried out using a liquid fertilizer, Hyponica, at a rate of 3 kg-N/10 a. After 33 days from sowing, the plant bodies were harvested, and the fresh weight (roots) and the tillering number were measured.

In test [2] the test system is rice seedlings. Kind of test: Verification of effect: treated seedlings transplanted into paddy field pot, harvest after three weeks. In kind it is in vivo. As to conditions: 3 weeks after transplantation into paddy field pot; treated upon raising seedlings: 5-aminolevulinic acid hydrochloride 120 mg/10a and/or inabenfide 1200 g/10a; n = 3. The procedure:
450 g/pot of soil was placed in a seedling box (the area was 1/120,000×10 a). The soil used was a purchased volcanic ash soil (andosol). Rice seeds which had been subjected to brine grading using a brine having a specific gravity of 1.13, and had been germinated, were sowed at a rate of 15 seeds/pot, and the seeds were covered with soil at a depth of 1 to 2 cm (50 g/pot). Fertilizer application was carried out using a liquid fertilizer, Hyponica, at a rate of 5 kg-N/10 a. For each of the test zones (n=4), the soil was irrigated with combinations of inabenfide in an amount of treatment of 1,200 or 300 g/10 a, and 5-aminolevulinic acid hydrochloride in an amount of treatment of 600, 200 or 120 mg/10 a. After 22 days from sowing, the plant bodies were harvested, and the fresh weight (roots), the tillering number, the stem thickness and the chlorophyll content (SPAD value) were measured. The results for the fresh weight of roots and the tillering number under various conditions are presented in Table 6, and the results for the stem thickness and the chlorophyll content (SPAD value) under various conditions are presented in Table 7.
Seedlings were raised in the same manner as in Example 2. In regard to the treatment concentration upon raising seedlings, the treatment was carried out using 5-aminolevulinic acid hydrochloride at a concentration of 120 (mg/10 a) and inabenfide at a concentration of 1,200 (g/10 a). After the seedlings were raised, the roots of four seedlings were evenly cut to 2 cm, and the seedlings were transplanted into a pot simulating the state of paddy field. After three weeks from the transplantation into the pot simulating the state of paddy field, the plant bodies were harvested, and the dry weights of the aerial part and the root part, and the tillering number were measured. The various treatment conditions employed upon raising the seedlings, and the measurement values obtained after 3 weeks from the transplantation into paddy field pot are presented in Table 8.

In test [3] the test system is rice seedlings. Briefly: Effect of improving rice seedling growth - 2 (soil irrigation in seedling box, harvest 22 days from sowing). The class given is in vivo. As to conditions: for SPAD value (chlorophyll content) / Stem thickness: 5-aminolevulinic acid hydrochloride 600 mg/10 a and/or inabenfide 300 g/10 a, n = 15 to 17. The procedure: 450 g/pot of soil was placed in a seedling box (the area was 1/120,000×10 a). The soil used was a purchased volcanic ash soil (andosol). […] Fertilizer application was carried out using a liquid fertilizer, Hyponica, at a rate of 5 kg-N/10 a. […] The results for the fresh weight of roots and the tillering number under various conditions are presented in Table 6, and the results for the stem thickness and the chlorophyll content (SPAD value) under various conditions are presented in Table 7.

[4] abbreviates: 5-aminolevulinic acid hydrochloride 200 mg/10 a and/or trinexapac-ethyl 1.25 g/10 a.
[5] abbreviates: 5-aminolevulinic acid hydrochloride 200 mg/10 a and/or paclobutrazole 90 g/10 a.
[6] abbreviates: 5-aminolevulinic acid hydrochloride 200 mg/10 a and/or inabenfide 1200 g/10 a.
Where [7] appears, read: inabenfide 300 g/10 a, 5-aminolevulinic acid hydrochloride 0.
[8] abbreviates: inabenfide 1200 g/10 a, 5-aminolevulinic acid hydrochloride 0.
The mark [9] stands for this setting: 5-aminolevulinic acid hydrochloride 200 mg/10 a and/or uniconazole P 30 g/10 a.
[10] abbreviates: 5-aminolevulinic acid hydrochloride 200 mg/10 a and/or uniconazole P 30 g/10 a, n=4 zones.
[11] abbreviates: 5-aminolevulinic acid hydrochloride 200 mg/10 a and/or prohexadione calcium salt 15 g/10 a.
Setting [12] is: 5-aminolevulinic acid hydrochloride 120 mg/10 a, inabenfide 0.
[13] abbreviates: 5-aminolevulinic acid hydrochloride 200 mg/10 a, inabenfide 0.
[14] abbreviates: 5-aminolevulinic acid hydrochloride 600 mg/10 a, inabenfide 0.

For `CCOC(=O)C1CC(=O)C(=C(O)C2CC2)C(=O)C1` (stereo not drawn) [Trinexapac-ethyl, ethyl=4-cyclopropyl-α-hydroxymethylene)-3,5-dioxocyclohexane carboxylate], in the test with rice seedlings [1] (setting [4]), the “Average tillering number per plant body” value came out at 0.00 and the “Fresh weight of roots” value came out at 0.23 g.

Regarding `CC(C)(C)[C@@H](O)[C@@H](Cc1ccc(Cl)cc1)n1cncn1` (racemic) [Paclobutrazole, (2RS,3RS)-1-(4-chlorophenyl)-4,4-dimethyl-2-(1H-1,2,4-triazol-1-yl)pentan-3-ol], in the test with rice seedlings [1] (setting [5]), the “Average tillering number per plant body” value is 0.80 and the “Fresh weight of roots” value is listed as 0.29 g.

For the compound `O=C(Nc1ccc(Cl)cc1C(O)c1ccccc1)c1ccncc1` (stereo not drawn) [Inabenfide], in the test with rice seedlings [2], the “Average tillering number per plant body” value is given as 8.0, the “Degree of sturdiness (dry weight/height for shoots)” value worked out at 0.060 g/cm, the “Dry weight of roots” value turned out to be 1.1 g and the “Dry weight of shoots” value was determined as 3.6 g. Moreover, in the test with rice seedlings [2], the “Fresh weight of shoots” value amounted to 15.8 g. Moreover, in the test on rice seedlings [1] (setting [6]), the “Average tillering number per plant body” value is listed as 0.19 and the “Fresh weight of roots” value is reported as 0.34 g. Also, in the test with rice seedlings [3], the “SPAD value (chlorophyll content)” value was determined as 29.23 and the Stem thickness turned out to be 0.415 cm. In the test with rice seedlings [3] (setting [7]), the “Average tillering number per plant body” value is recorded as 0.11 and the “Fresh weight of roots” value came out at 0.35 g. In addition, in the test on rice seedlings [3] (setting [8]), the “Average tillering number per plant body” value was 0.41 and the “Fresh weight of roots” value is reported as 0.35 g.

Take `CC(C)(C)[C@H](O)/C(=C\c1ccc(Cl)cc1)n1cncn1` [Uniconazole P, (E)-(S)-1-(4-chlorophenyl)-4,4-dimethyl-2-(1H-1,2,4-triazol-1-yl)pent-1-en-3-ol]: the “Average tillering number per plant body” value in the test on rice seedlings [1] (setting [9]) amounted to 0.86. Further, the “Fresh weight of roots” value in the test on rice seedlings [1] (setting [10]) is reported as 0.28 g.

As for `CCC(=O)C1=C([O-])CC(C(=O)[O-])CC1=O.[Ca+2]` (stereo not drawn) [Prohexadione calcium salt, calcium 3-oxido-5-oxo-4-propionyl-3-cyclohexene carboxylate], the “Fresh weight of roots” value with rice seedlings [1] (setting [11]) came to 0.32 g.

Take `Cl.NCC(=O)CCC(=O)O` [5-aminolevulinic acid hydrochloride]: the “Average tillering number per plant body” value in the test with rice seedlings [2] amounted to 6.7; in the test with rice seedlings [1] (setting [6]), 0.00; with rice seedlings [1] (setting [5]) it was 0.00; in the test on rice seedlings [1] (setting [4]), 0.00; in the test with rice seedlings [1] (setting [9]) it was 0.00; in the test on rice seedlings [3] (setting [12]) it was 0.03. For the same compound, the “Average tillering number per plant body” value with rice seedlings [3] (setting [13]) was found to be 0.01; in the test on rice seedlings [3] (setting [14]) it was 0.00. Moreover, the “Degree of sturdiness (dry weight/height for shoots)” value in the test with rice seedlings [2] was found to be 0.052 g/cm. Besides, the “Dry weight of roots” value in the test with rice seedlings [2] is given as 1.0 g. Also, the “Dry weight of shoots” value in the test on rice seedlings [2] is listed as 3.2 g. Further, in the test on rice seedlings [2], the “Fresh weight of shoots” value came to 14.1 g. For the same compound, the “Fresh weight of roots” value in the test on rice seedlings [1] (setting [6]) came out at 0.29 g; in the test on rice seedlings [1] (setting [5]), 0.29 g; in the test with rice seedlings [1] (setting [11]) it was 0.29 g; in the test on rice seedlings [1] (setting [4]), 0.29 g; with rice seedlings [1] (setting [10]), 0.29 g; in the test on rice seedlings [3] (setting [12]), 0.35 g. Moreover, the “Fresh weight of roots” value was determined as 0.36 g in the test on rice seedlings [3] (setting [13]) and 0.35 g with rice seedlings [3] (setting [14]). For the same compound, the “SPAD value (chlorophyll content)” value in the test on rice seedlings [3] was found to be 28.70. The compound also yielded a Stem thickness with rice seedlings [3] of 0.429 cm.
